According to patent publication US20120284853A1, “HERBICIDE-TOLERANT PLANTS” (BASF AGROCHEMICAL PRODUCTS, B.V., priority 2009, published 2012):

Experiments:
rice plants = test: Greenhouse spray test of M0 regenerants, rated for herbicide injury; type: in vivo; details: 400-1600 g ai/ha with 0.1% methylated seed oil, subset 800 g ai/ha, rated 1 and 2 weeks after treatment
Protocol: Selected mutants and escapes were transferred to small pots. Wild-type cultivars and 3 biovars of red rice were germinated from seed to serve as controls.
After ca. 3 weeks post-transplant, M0 regenerants were sprayed using a track sprayer with 400-1600 g ai/ha cycloxydim (BAS 517H) supplemented with 0.1% methylated seed oil. After the plants had adapted to greenhouse conditions, a subset were sprayed with 800 g ai/ha cycloxydim. Once sprayed, plants were kept on drought conditions for 24 hours before being watered and fertilized again. Sprayed plants were photographed and rated for herbicide injury at 1 (FIG. 3) and 2 weeks after treatment (FIG. 4). […] FIGS. 5-15 provide nucleic acid and/or amino acid sequences of acetyl-Coenzyme A carboxylase enzymes from various plants. FIG. 17 provides a graph showing results for mutant rice versus various ACCase inhibitors.

[1] = tested on: ACCase-inhibitor tolerant rice plants; test: Field treatment of ACCase-inhibitor tolerant rice plants; type: in vivo; details: 600 g/ha treatment; data not shown
[2] = tested on: rice calli derived from Oryza sativa subsp. indica; test: Kill curves of rice calli in tissue culture (toxic levels of ACCase inhibitors); type: cell-based; details: determined by kill curves and observations of continued culture; rice calli on R001M
Protocol: FIG. 1 is a bar graph showing relative growth rice calli derived from Oryza sativa subsp. indica grown in the presence of difference selection levels of herbicide.
Once tissue culture conditions were determined, further establishment of selection conditions were established through the analysis of tissue survival in kill curves with cycloxydim, tepraloxydim, sethoxydim (FIG. 1) or haloxyfop (not shown). Careful consideration of accumulation of the herbicide in the tissue, as well as its persistence and stability in the cells and the culture media was performed. Through these experiments, a sub-lethal dose has been established for the initial selection of mutated material.
After the establishment of the starting dose of sethoxydim, cycloxydim, tepraloxydim, and haloxyfop in selection media, the tissues were selected in a step-wise fashion by increasing the concentration of the ACCase inhibitor with each transfer until cells are recovered that grew vigorously in the presence of toxic doses (see FIG. 2). […] Over 26,000 calli were subjected to selection for 4-5 subcultures until the selective pressure was above toxic levels as determined by kill curves and observations of continued culture. Toxic levels were determined to be 50 μM sethoxydim, 20 μM cycloxydim, 2.5 μM tepraloxydim (FIG. 1) and 10 μM haloxyfop (not shown).

Compound | herbicide injury (rice plants; control plants and tissue culture escapes) | herbicide injury (rice plants; plants containing the I1,781(Am)L heterozygous mutation) | herbicide tolerance phenotype in the field [1] | Toxic levels [2]
CCCC(=NOCC)C1=C(O)CC(C2CCCSC2)CC1=O (centres unmarked) [cycloxydim] | heavily damaged | No injury | Herbicide tolerance phenotypes as described herein have also been exhibited | 
CCC/C(=N\OCC)C1=C(O)CC(CC(C)SCC)CC1=O (centres unmarked) [sethoxydim] |  |  |  | 50 µM
CC/C(=N\OC/C=C/Cl)C1=C(O)CC(C2CCOCC2)CC1=O (centres unmarked) [tepraloxydim] |  |  |  | 2.5 µM
